In US12668600B2 (Kumquat Biosciences Inc., priority 2023, dated 2026):
pIC50: −log10 of the molar value.

Experiments:
Format in all cases: biochemical
KRAS G12D = biological target: T1, KRAS G12D (Homo sapiens, UniProt P01116, G12D); assay: HTRF KRAS-SOS1 interaction assay, KRAS G12D; details: binned ≤2 μM / >2 μM, read-out: Inhibition of KRAS G12D (IC50)
T1 construct: made in house; host or cells: E. coli, e.g. BL21 (DE3)
Outline: (§1)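 Read-out: HTRF ratio 665/620 nm after ≥10 min incubation of compound with GST-KRAS/anti-GST-Eu and His-hSOS1/anti-6His-XL665. Duplicate dose series, 10 μM down to 0.01 μM. Buffer HEPES pH 7.4, NaCl, DTT, BSA, Igepal.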

KRAS WT = biological target: T2, KRAS WT (Homo sapiens, UniProt P01116); assay: HTRF KRAS-SOS1 interaction assay, wildtype KRAS; details: binned ≤2 μM / >2 μM, read-out: Inhibition of KRAS WT (IC50)
T2 construct: made in house; host or cells: E. coli, e.g. BL21 (DE3)
T2 sequence (P01116 1-188 isoform P01116-2): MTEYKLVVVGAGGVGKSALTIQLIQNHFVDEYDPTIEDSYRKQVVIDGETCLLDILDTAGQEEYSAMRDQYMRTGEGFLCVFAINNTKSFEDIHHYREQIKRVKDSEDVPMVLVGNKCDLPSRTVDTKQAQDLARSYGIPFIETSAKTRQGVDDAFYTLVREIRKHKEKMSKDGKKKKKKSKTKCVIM
Outline: as §1

KRAS G12V = biological target: T3, KRAS G12V (Homo sapiens, UniProt P01116, G12V); assay: HTRF KRAS-SOS1 interaction assay, KRAS G12V; details: binned ≤2 μM / >2 μM, read-out: Inhibition of KRAS G12V (IC50)
T3 construct: made in house; host or cells: E. coli, e.g. BL21 (DE3)
T3 sequence (P01116 1-188 isoform P01116-2 G12V): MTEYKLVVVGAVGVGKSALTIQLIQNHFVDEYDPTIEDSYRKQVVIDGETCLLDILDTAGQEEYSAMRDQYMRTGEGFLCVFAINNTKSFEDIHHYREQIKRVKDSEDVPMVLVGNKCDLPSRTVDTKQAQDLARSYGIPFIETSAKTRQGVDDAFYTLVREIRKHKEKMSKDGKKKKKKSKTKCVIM
Outline: as §1

KRAS G12S = biological target: T4, KRAS G12S (Homo sapiens, UniProt P01116, G12S); assay: HTRF KRAS-SOS1 interaction assay, KRAS G12S; details: binned ≤2 μM / >2 μM, read-out: Inhibition of KRAS G12S (IC50)
T4 construct: made in house; host or cells: E. coli, e.g. BL21 (DE3)
T4 sequence (P01116 1-188 isoform P01116-2 G12S): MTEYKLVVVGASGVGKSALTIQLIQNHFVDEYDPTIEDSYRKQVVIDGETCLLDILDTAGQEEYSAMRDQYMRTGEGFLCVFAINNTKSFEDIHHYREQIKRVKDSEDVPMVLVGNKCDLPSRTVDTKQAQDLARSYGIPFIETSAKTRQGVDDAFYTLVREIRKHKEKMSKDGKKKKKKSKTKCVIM
Outline: as §1

Measured: pIC50

T1 sequence (P01116 1-188 isoform P01116-2 G12D): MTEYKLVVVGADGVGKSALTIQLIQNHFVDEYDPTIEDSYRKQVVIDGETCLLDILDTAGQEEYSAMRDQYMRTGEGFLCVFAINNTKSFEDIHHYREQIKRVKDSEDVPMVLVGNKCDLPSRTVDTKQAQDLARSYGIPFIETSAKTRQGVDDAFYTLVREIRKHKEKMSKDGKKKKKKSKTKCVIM

CON=C1CN2CCC[C@@]2(COc2nc3c4c(c(Cl)c(-c5ccc(F)c6sc(N)c(C#N)c56)c(F)c4n2)OCCN3[C@H](C)c2cccnc2N)C1 (mixture of isomers) [Compound 653, 2-amino-4-(4-((R)-1-(2-aminopyridin-3-yl)ethyl)-8-chloro-10-fluoro-2-(((S)-2-(methoxyimino)tetrahydro-1H-pyrrolizin-7a(5H)-yl)methoxy)-5,6-dihydro-4H-[1,4]oxazepino[5,6,7-de]quinazolin-9-yl)-7-fluorobenzo[b]thiophene-3-carbonitrile]
≥ 5.70: all assays above

C[C@H](c1cccnc1N)N1CCOc2c(Cl)c(-c3ncc(F)c4sc(N)c(C#N)c34)c(F)c3nc(OC[C@@]45CCCN4C[C@H](F)C5)nc1c23 (single isomer, unassigned) [Compound 825]
≥ 5.70: all assays above

N#Cc1c(N)sc2c(F)ccc(-c3c(Cl)c4c5c(nc(OC[C@@]67CCCN6C[C@H](F)C7)nc5c3F)N([C@H](C#CC3CC3)c3cccnc3N)CCO4)c12 [Compound 609, 2-amino-4-(4-((R)-1-(2-aminopyridin-3-yl)-3-cyclopropylprop-2-yn-1-yl)-8-chloro-10-fluoro-2-(((2R,7aS)-2-fluorotetrahydro-1H-pyrrolizin-7a(5H)-yl)methoxy)-5,6-dihydro-4H-[1,4]oxazepino[5,6,7-de]quinazolin-9-yl)-7-fluorobenzo[b]thiophene-3-carbonitrile]
≥ 5.70: all assays above

C#CCC(c1cccnc1N)N1CCOc2c(Cl)c(-c3ccc(F)c4sc(N)c(C#N)c34)c(F)c3nc(OC[C@@]45CCCN4C[C@H](F)C5)nc1c23 (single isomer, unassigned) [Compound 764]
≥ 5.70: all assays above

C[C@H](c1cccnc1N)N1CCOc2c(C(F)(F)F)c(-c3ccc(F)c4sc(N)c(C#N)c34)c(F)c3nc(OCC4(CN5CCC(=C(F)F)CC5)CC4)nc1c23 (single isomer, unassigned) [Compound 884]
< 5.70: all assays above

C[C@H](c1cc(F)cnc1N)N1CCOc2c(C(F)(F)F)c(-c3ccc(F)c4sc(N)c(C#N)c34)c(F)c3nc(OC[C@@]45CCCN4CC(=C(F)F)C5)nc1c23 [Compound 675, 2-amino-4-(4-((R)-1-(2-amino-5-fluoropyridin-3-yl)ethyl)-2-(((S)-2-(difluoromethylene)tetrahydro-1H-pyrrolizin-7a(5H)-yl)methoxy)-10-fluoro-8-(trifluoromethyl)-5,6-dihydro-4H-[1,4]oxazepino[5,6,7-de]quinazolin-9-yl)-7-fluorobenzo[b]thiophene-3-carbonitrile]
≥ 5.70: all assays above

CC(=O)c1c(F)ccc2cc(O)cc(-c3nc4c5c(nc(OC[C@@H]6CCCN6C)nc5c3F)N(C(C)c3cccnc3N)CCO4)c12 (mixture of isomers) [Compound 801, 1-(8-(10-(1-(2-aminopyridin-3-yl)ethyl)-4-fluoro-2-(((S)-1-methylpyrrolidin-2-yl)methoxy)-9,10-dihydro-8H-7-oxa-1,3,6,10-tetraazacyclohepta[de]naphthalen-5-yl)-2-fluoro-6-hydroxynaphthalen-1-yl)ethan-1-one]
≥ 5.70: all assays above
